Converted amounts (≈) assume the structure as drawn. Read-outs that look alike come from different tables or passages of the source.
Tests used:
Assay in all cases: in vitro anti-bacterial activity, two-fold agar plate dilution method
Type in all cases: cell-based
[1] = system: Escherichia coli CSH(RE45); conditions: 37° C., 20 hours, read-out: MIC
Description: (§1) The agent for preventing and treating bacterial infections was tested for in vitro anti-bacterial activity by the following two-fold agar plate dilution method. Each test strain was incubated for 20 hours in a bouillon for measuring sensitivity to obtain a test culture (containing about […]). Portions of sensitivity measuring agar medium containing varying concentrations of the antibacterial agent were each innoculated with a 0.005 ml portion of the culture, followed by incubation at 37° C. for 20 hours. The minimum growth inhibitory concentration (MIC) in μg/ml was then determined.
(§2) MIC=minimum inhibitory concentration

[2] = system: Escherichia coli NIHJ-JC2
Description: as §1, §2

[3] = system: Klebsiella pneumoniae
Description: as §1, §2

[4] = system: Proteus mirabilis
Description: as §1, §2

[5] = system: Proteus vulgaris
Description: as §1, §2

[6] = system: Pseudomonas aeruginosa
Description: as §1, §2

[7] = system: Pseudomonas cepacia; conditions: Burkholderia cepacia, 37° C., 20 hours, read-out: MIC
Description: as §1, §2

[8] = system: Serratia marcescens
Description: as §1, §2

[9] = system: Staphylococcus aureus 209P; conditions: Staphylococcus aureus 209P; agar dilution, 37° C., 20 hours; read-out: MIC
Description: as §1, §2

[10] = NIHJJC2, Escherichia coli NIHJ-JC2, agar dilution, 37° C., 20 hours, read-out: MIC
[11] = agar dilution, 37° C., 20 hours, read-out: MIC

Question: CC(C)(O/N=C(\C(=O)NC1C(=O)N2C(C(=O)[O-])=C(C[n+]3cn(Cc4ccccc4)c4ccccc43)CSC12)c1csc(N)n1)C(=O)O (stereo not drawn) [P, 7-{2-(2-aminothiazole-4-yl)-2-[potassium(2,2-dimethylacetate)oxyimino]acetamide}-3-(benz-3-N-benzyl-1-imidazoliomethyl)-3-cephem-4-carboxylate] was tested. Which MIC [1] did it give?
Answer: 1.56 µg/mL

Question: What about the MIC [2, 10] of the same compound?
Answer: 3.13 µg/mL

Question: And the MIC [3, 11]?
Answer: 6.25 µg/mL

Question: What about the MIC ([4]; 20 h) of the same compound?
Answer: 3.13 µg/mL

Question: What about the MIC ([5]; 20 h) of the same compound?
Answer: 1.56 µg/mL

Question: What about the MIC [6, 11] of the same compound?
Answer: 6.25 µg/mL

Question: What about the MIC [7] of the same compound?
Answer: 50 µg/mL

Question: What about the MIC [8, 11] of the same compound?
Answer: 6.25 µg/mL

Question: And the MIC [9]?
Answer: 3.13 µg/mL

Question: Which results are given for C#CCn1c[n+](CC2=C(C(=O)[O-])N3C(=O)C(NC(=O)/C(=N\OC(C)(C)C(=O)O)c4csc(N)n4)C3SC2)c2ccccc21 (stereo not drawn) [Q, 7-{2-(2-aminothiazole-4-yl)-2-[potassium(2,2-dimethylacetate)oxyimino]acetamide}-3-[benz-3-N-(2-propynyl)-1-imidazoliomethyl]-3-cephem-4-carboxylate]?
Answer: MIC [1]: 0.2 µg/mL; MIC [2, 10]: 0.2 µg/mL; MIC ([3]; 20 h): 0.78 µg/mL; MIC ([4]; 20 h): 0.39 µg/mL; MIC ([5]; 20 h): 0.1 µg/mL; MIC ([6]; 20 h): 3.13 µg/mL; MIC [7]: 12.5 µg/mL; MIC ([8]; 20 h): 0.78 µg/mL; MIC [9]: 3.13 µg/mL

Question: Which MIC [1] does the source give for C=C(C)Cn1c[n+](CC2=C(C(=O)[O-])N3C(=O)C(NC(=O)/C(=N\OC(C)(C)C(=O)O)c4csc(N)n4)C3SC2)c2ccccc21 (stereo not drawn) [R, 7-{2-(2-aminothiazole-4-yl)-2-[potassium(2,2-dimethylacetate)oxyimino]acetamide}-3-[benz-3-N-(2-methyl-2-propenyl)-1-imidazoliomethyl]-3-cephem-4-carboxylate] here?
Answer: 1.56 µg/mL

Question: What about the MIC [2, 10] of the same compound?
Answer: 0.78 µg/mL

Question: What about the MIC ([3]; 20 h) of the same compound?
Answer: 3.13 µg/mL

Question: And the MIC ([4]; 20 h)?
Answer: 3.13 µg/mL

Question: And the MIC ([5]; 20 h)?
Answer: 0.78 µg/mL

Question: What about the MIC [6, 11] of the same compound?
Answer: 12.5 µg/mL

Question: And the MIC [7]?
Answer: 25 µg/mL

Question: What about the MIC ([8]; 20 h) of the same compound?
Answer: 1.56 µg/mL

Question: What about the MIC [9] of the same compound?
Answer: 6.25 µg/mL

Question: What does the source list for CCCCn1c[n+](CC2=C(C(=O)[O-])N3C(=O)C(NC(=O)/C(=N\OC(C)(C)C(=O)O)c4csc(N)n4)C3SC2)c2ccccc21 (stereo not drawn) [T, 7-{2-(2-aminothiazole-4-yl)-2-[potassium(2,2-dimethylacetate)oxyimino]acetamide}-3-(benz-3-N-butyl-1-imidazoliomethyl)-3-cephem-4-carboxylate]?
Answer: MIC [1]: 0.39 µg/mL; MIC [2, 10]: 1.56 µg/mL; MIC ([3]; 20 h): 3.13 µg/mL; MIC ([4]; 20 h): 3.13 µg/mL; MIC ([5]; 20 h): 0.78 µg/mL; MIC [6, 11]: 6.25 µg/mL; MIC [7]: 25 µg/mL; MIC ([8]; 20 h): 1.56 µg/mL; MIC [9]: 3.13 µg/mL

Question: With C=CCn1c[n+](CC2=C(C(=O)[O-])N3C(=O)C(NC(=O)/C(=N\OC(C)(C)C(=O)O)c4csc(N)n4)C3SC2)c2ccccc21 (stereo not drawn) [U, 7-{2-(2-aminothiazole-4-yl)-2-[potassium(2,2-dimethylacetate)oxyimino]acetamide}-3-[benz-3-N-(2-propenyl)-1-imidazoliomethyl]-3-cephem-4-carboxylate] as the compound, how does the MIC [1] read?
Answer: 0.2 µg/mL

Question: What about the MIC [2, 10] of the same compound?
Answer: 0.39 µg/mL

Question: What about the MIC ([3]; 20 h) of the same compound?
Answer: 0.78 µg/mL

Question: What about the MIC ([4]; 20 h) of the same compound?
Answer: 1.56 µg/mL

Question: And the MIC ([5]; 20 h)?
Answer: 0.39 µg/mL

Question: What about the MIC [6, 11] of the same compound?
Answer: 6.25 µg/mL

Question: And the MIC [7]?
Answer: 25 µg/mL

Question: And the MIC ([8]; 20 h)?
Answer: 1.56 µg/mL

Question: What about the MIC [9] of the same compound?
Answer: 6.25 µg/mL

Question: How did the MIC [1] turn out when C=CCn1c[n+](CC2=C(C(=O)[O-])N3C(=O)C(NC(=O)/C(=N\OC)c4csc(N)n4)C3SC2)c2ccccc21 (stereo not drawn) [V, 7-[2-(2-aminothiazole-4-yl)-2-methoxyiminoacetamide}-3-[benz-3-N-(2-propenyl)-1-imidazoliomethyl]-3-cephem-4-carboxylate] was run?
Answer: 3.13 µg/mL (≈ 5.65 µM)

Question: And the MIC ([2]; Escherichia coli, NIHJJC2, 20 h)?
Answer: 0.78 µg/mL (≈ 1.41 µM)

Question: And the MIC [3, 11]?
Answer: 1.56 µg/mL (≈ 2.82 µM)

Question: What about the MIC [4, 11] of the same compound?
Answer: 6.25 µg/mL (≈ 11.3 µM)

Question: And the MIC [5, 11]?
Answer: 3.13 µg/mL (≈ 5.65 µM)

Question: What about the MIC [6, 11] of the same compound?
Answer: > 100 µg/mL

Question: And the MIC [7]?
Answer: > 100 µg/mL

Question: And the MIC [8, 11]?
Answer: 12.5 µg/mL (≈ 22.6 µM)

Question: What about the MIC [9] of the same compound?
Answer: 3.13 µg/mL (≈ 5.65 µM)

Question: C=CCO/N=C(\C(=O)NC1C(=O)N2C(C(=O)[O-])=C(C[n+]3cn(CC=C)c4ccccc43)CSC12)c1csc(N)n1 (stereo not drawn) [W, 7-[2-(2-aminothiazole-4-yl)-2-(2-propenyloxyimino)acetamide]-3-[benz-3-N-(2-propeny)-1-imidazoliomethyl]-3-cephem-4-carboxylate] was tested. Which MIC [1] did it give?
Answer: 1.56 µg/mL (≈ 2.69 µM)

Question: What about the MIC [2, 10] of the same compound?
Answer: 3.13 µg/mL (≈ 5.4 µM)

Question: And the MIC [3, 11]?
Answer: 6.25 µg/mL (≈ 10.8 µM)

Question: And the MIC [4, 11]?
Answer: 6.25 µg/mL (≈ 10.8 µM)

Question: What about the MIC ([5]; 20 h) of the same compound?
Answer: 3.13 µg/mL (≈ 5.4 µM)

Question: And the MIC [6, 11]?
Answer: 50 µg/mL (≈ 86.3 µM)

Question: And the MIC [7]?
Answer: > 100 µg/mL

Question: And the MIC [8, 11]?
Answer: 25 µg/mL (≈ 43.1 µM)

Question: What about the MIC [9] of the same compound?
Answer: 1.56 µg/mL (≈ 2.69 µM)

Question: Which results are given for CC=CCn1c[n+](CC2=C(C(=O)[O-])N3C(=O)C(NC(=O)/C(=N\OC(C)(C)C(=O)O)c4csc(N)n4)C3SC2)c2ccccc21 (stereo not drawn) [X, 7-{2-(2-aminothiazole-4-yl)-2-[potassium(2,2-dimethylacetate)oxyimino]acetamide}-3-[benz-3-N-(2-butenyl)-1-imidazoliomethyl]-3-cephem-4-carboxylate]?
Answer: MIC [1]: 0.78 µg/mL; MIC [2, 10]: 1.56 µg/mL; MIC ([3]; 20 h): 3.13 µg/mL; MIC ([4]; 20 h): 1.56 µg/mL; MIC ([5]; 20 h): 1.56 µg/mL; MIC [6, 11]: 12.5 µg/mL; MIC [7]: 50 µg/mL; MIC ([8]; 20 h): 1.56 µg/mL; MIC [9]: 6.25 µg/mL

Question: What does the source list for CC(C)=CCn1c[n+](CC2=C(C(=O)[O-])N3C(=O)C(NC(=O)/C(=N\OC(C)(C)C(=O)O)c4csc(N)n4)C3SC2)c2ccccc21 (stereo not drawn) [Y, 7-{2-(2-aminothiazole-4-yl)-2-[potassium(2,2-dimethylacetate)oxyimino]acetamide}-3-[benz-3-N-(3-methyl-2-butenyl)-1-imidazoliomethyl]-3-cephem-4-carboxylate]?
Answer: MIC [1]: 1.56 µg/mL; MIC [2, 10]: 6.25 µg/mL; MIC [3, 11]: 12.5 µg/mL; MIC [4, 11]: 6.25 µg/mL; MIC ([5]; 20 h): 3.13 µg/mL; MIC [6, 11]: 25 µg/mL; MIC [7]: > 100 µg/mL; MIC [8, 11]: 12.5 µg/mL; MIC [9]: 6.25 µg/mL

Reference: patent US4906623A, “3-Imidazolium cephalosporin derivatives” (Otsuka Kagaku Kabushiki Kaisha, priority 1985, dated 1990)
